# Experimental data reported in PubChem BioAssay AID2060498 (Molecular Pharmacology Branch, DTP, NCI, 2025).
# Tested on: 171881-019-R-J1-PDC tumor spheroids, viability
# Experiment: Anticancer human tumor 171881-019-R-J1-PDC patient-derived invasive breast carcinoma cell line growth inhibition [GQUAD]
# Details: spheroids with HUVEC and MSC; for IC50: curve of first compound; for viability, T/C: stronger effect = lower value
# Method in brief: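 Tumor cells were grown as complex spheroids with HUVEC endothelial cells and mesenchymal stem cells as stroma. G-quadruplex stabilizers were combined with targeted agents over half-log dilutions from near the clinical Cmax, or from 10 microM.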
# [1] = second compound 0.0316 µM, first compound 0.0316 µM
# [2] = second compound 0.0316 µM, first compound 0.1 µM
# [3] = second compound 0.0316 µM, first compound 0.316 µM
# [4] = second compound 0.0316 µM, first compound 1 µM
# [5] = second compound 0.0316 µM, first compound 3.16 µM
# [6] = second compound 0.0316 µM, first compound 10 µM
# [7] = second compound 0.1 µM, first compound 0.0316 µM
# [8] = second compound 0.1 µM, first compound 0.1 µM
# [9] = second compound 0.1 µM, first compound 0.316 µM
# [10] = second compound 0.1 µM, first compound 1 µM
# [11] = second compound 0.1 µM, first compound 3.16 µM
# [12] = second compound 0.1 µM, first compound 10 µM
# [13] = second compound 0.316 µM, first compound 0.0316 µM
# [14] = second compound 0.316 µM, first compound 0.1 µM
# [15] = second compound 0.316 µM, first compound 0.316 µM
# [16] = second compound 0.316 µM, first compound 1 µM
# [17] = second compound 0.316 µM, first compound 3.16 µM
# [18] = second compound 0.316 µM, first compound 10 µM
# [19] = second compound 1 µM, first compound 0.0316 µM
# [20] = second compound 1 µM, first compound 0.1 µM
# [21] = second compound 1 µM, first compound 0.316 µM
# [22] = second compound 1 µM, first compound 1 µM
# [23] = second compound 1 µM, first compound 3.16 µM
# [24] = second compound 1 µM, first compound 10 µM
# [25] = second compound 3.16 µM, first compound 0.0316 µM
# [26] = second compound 3.16 µM, first compound 0.1 µM
# [27] = second compound 3.16 µM, first compound 0.316 µM
# [28] = second compound 3.16 µM, first compound 1 µM
# [29] = second compound 3.16 µM, first compound 3.16 µM
# [30] = second compound 3.16 µM, first compound 10 µM
# [31] = second compound 10 µM, first compound 0.0316 µM
# [32] = second compound 10 µM, first compound 0.1 µM
# [33] = second compound 10 µM, first compound 0.316 µM
# [34] = second compound 10 µM, first compound 1 µM
# [35] = second compound 10 µM, first compound 3.16 µM
# [36] = second compound 10 µM, first compound 10 µM
# 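Further: spheroids exposed to compounds for 7 days.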
# 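Wherever viability, T/C is given: 100% = DMSO vehicle control viability.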
structure (smiles),measurement,setting,value
O=c1[nH]cc(F)c(=O)[nH]1 + CN(C)c1ccc(Nc2c3ccc(NC(=O)CCN4CCCC4)cc3nc3cc(NC(=O)CCN4CCCC4)ccc23)cc1,IC50,second compound 0.0316 µM,> 10000 nM
same,IC50,second compound 0.1 µM,> 10000 nM
same,IC50,second compound 0.316 µM,9940 nM
same,IC50,second compound 1 µM,< 31.6 nM
same,IC50,second compound 3.16 µM,< 31.6 nM
same,IC50,second compound 10 µM,< 31.6 nM
same,"viability, T/C",[1],84%
same,"viability, T/C",[2],79.3%
same,"viability, T/C",[3],75.2%
same,"viability, T/C",[4],69.5%
same,"viability, T/C",[5],62.9%
same,"viability, T/C",[6],63.9%
same,"viability, T/C",[7],79.7%
same,"viability, T/C",[8],72.9%
same,"viability, T/C",[9],73.4%
same,"viability, T/C",[10],69.1%
same,"viability, T/C",[11],65.7%
same,"viability, T/C",[12],61.6%
same,"viability, T/C",[13],70.5%
same,"viability, T/C",[14],69.4%
same,"viability, T/C",[15],69.5%
same,"viability, T/C",[16],55.4%
same,"viability, T/C",[17],58%
same,"viability, T/C",[18],49.9%
same,"viability, T/C",[19],14.9%
same,"viability, T/C",[20],11.1%
same,"viability, T/C",[21],17%
same,"viability, T/C",[22],12.6%
same,"viability, T/C",[23],13.4%
same,"viability, T/C",[24],15.8%
same,"viability, T/C",[25],2.15%
same,"viability, T/C",[26],1.36%
same,"viability, T/C",[27],2.04%
same,"viability, T/C",[28],2.2%
same,"viability, T/C",[29],2.62%
same,"viability, T/C",[30],2.05%
same,"viability, T/C",[31],0.33%
same,"viability, T/C",[32],0.41%
same,"viability, T/C",[33],0.8%
same,"viability, T/C",[34],0.38%
same,"viability, T/C",[35],0.5%
same,"viability, T/C",[36],0.29%
COc1cccc2c1C(=O)c1c(O)c3c(c(O)c1C2=O)CC(O)(C(=O)CO)CC3OC1CC(N)C(O)C(C)O1 (stereo not drawn) + Cc1cnc(CNC(=O)c2c(=O)c3ccc(N4CCCN(C)CC4)nc3n3c2sc2ccccc23)cn1,IC50,second compound 0.0316 µM,153 nM
same,IC50,second compound 0.1 µM,159 nM
same,IC50,second compound 0.316 µM,169 nM
same,IC50,second compound 1 µM,155 nM
same,IC50,second compound 3.16 µM,139 nM
same,IC50,second compound 10 µM,138 nM
same,"viability, T/C",[1],70.5%
same,"viability, T/C",[2],54.8%
same,"viability, T/C",[3],39%
same,"viability, T/C",[4],13.5%
same,"viability, T/C",[5],0.14%
same,"viability, T/C",[6],0.9%
same,"viability, T/C",[7],70.2%
same,"viability, T/C",[8],57.4%
same,"viability, T/C",[9],37.8%
same,"viability, T/C",[10],13.7%
same,"viability, T/C",[11],0.14%
same,"viability, T/C",[12],0.43%
same,"viability, T/C",[13],62.9%
same,"viability, T/C",[14],59.9%
same,"viability, T/C",[15],38.7%
same,"viability, T/C",[16],11.7%
same,"viability, T/C",[17],0.32%
same,"viability, T/C",[18],0.4%
same,"viability, T/C",[19],61.8%
same,"viability, T/C",[20],53.2%
same,"viability, T/C",[21],41.2%
same,"viability, T/C",[22],11.4%
same,"viability, T/C",[23],0.12%
same,"viability, T/C",[24],0.16%
same,"viability, T/C",[25],59.1%
same,"viability, T/C",[26],52.5%
same,"viability, T/C",[27],39.3%
same,"viability, T/C",[28],10.6%
same,"viability, T/C",[29],0.2%
same,"viability, T/C",[30],0.14%
same,"viability, T/C",[31],59.9%
same,"viability, T/C",[32],55.9%
same,"viability, T/C",[33],35.3%
same,"viability, T/C",[34],9.6%
same,"viability, T/C",[35],0.2%
same,"viability, T/C",[36],0.69%
CC(C)(O)C1CCC(Nc2ccc3ncc(-c4cccc(C(F)(F)F)c4)n3n2)CC1 (stereo not drawn) + CN(C)c1ccc(Nc2c3ccc(NC(=O)CCN4CCCC4)cc3nc3cc(NC(=O)CCN4CCCC4)ccc23)cc1,IC50,second compound 0.0316 µM,1860 nM
same,IC50,second compound 0.1 µM,1840 nM
same,IC50,second compound 0.316 µM,< 31.6 nM
same,IC50,second compound 1 µM,< 31.6 nM
same,IC50,second compound 3.16 µM,< 31.6 nM
same,IC50,second compound 10 µM,< 31.6 nM
same,"viability, T/C",[1],99.9%
same,"viability, T/C",[2],103%
same,"viability, T/C",[3],102%
same,"viability, T/C",[4],73.8%
same,"viability, T/C",[5],30%
same,"viability, T/C",[6],25.6%
same,"viability, T/C",[7],94.5%
same,"viability, T/C",[8],99.5%
same,"viability, T/C",[9],101%
same,"viability, T/C",[10],77.1%
same,"viability, T/C",[11],24.3%
same,"viability, T/C",[12],27.6%
same,"viability, T/C",[13],43.7%
same,"viability, T/C",[14],47.2%
same,"viability, T/C",[15],39.3%
same,"viability, T/C",[16],22.2%
same,"viability, T/C",[17],9.07%
same,"viability, T/C",[18],6.72%
same,"viability, T/C",[19],3.24%
same,"viability, T/C",[20],2.74%
same,"viability, T/C",[21],3.28%
same,"viability, T/C",[22],1%
same,"viability, T/C",[23],0.4%
same,"viability, T/C",[24],0.21%
same,"viability, T/C",[25],0.19%
same,"viability, T/C",[26],0.18%
same,"viability, T/C",[27],0.29%
same,"viability, T/C",[28],0.13%
same,"viability, T/C",[29],0.43%
same,"viability, T/C",[30],0.14%
same,"viability, T/C",[31],0.15%
same,"viability, T/C",[32],0.47%
same,"viability, T/C",[33],0.23%
same,"viability, T/C",[34],0.13%
same,"viability, T/C",[35],0.32%
same,"viability, T/C",[36],0.17%
CC1COCCN1c1cc(C2(O)CC3CCC(C2)O3)c2cnn(-c3ccn[nH]3)c2n1 (stereo not drawn) + Cc1[nH]c2ccc(F)cc2c1-c1nc2c3cccnc3c3ncccc3c2[nH]1,IC50,second compound 0.0316 µM,34.5 nM
same,IC50,second compound 0.1 µM,38.1 nM
same,IC50,second compound 0.316 µM,33.8 nM
same,IC50,second compound 1 µM,< 31.6 nM
same,IC50,second compound 3.16 µM,< 31.6 nM
same,IC50,second compound 10 µM,< 31.6 nM
same,"viability, T/C",[1],52.8%
same,"viability, T/C",[2],20.5%
same,"viability, T/C",[3],10.3%
same,"viability, T/C",[4],5.52%
same,"viability, T/C",[5],4.37%
same,"viability, T/C",[6],4.08%
same,"viability, T/C",[7],55.6%
same,"viability, T/C",[8],20.6%
same,"viability, T/C",[9],9.69%
same,"viability, T/C",[10],5.6%
same,"viability, T/C",[11],3.81%
same,"viability, T/C",[12],3.56%
same,"viability, T/C",[13],52.1%
same,"viability, T/C",[14],20.3%
same,"viability, T/C",[15],9.82%
same,"viability, T/C",[16],5.18%
same,"viability, T/C",[17],4.67%
same,"viability, T/C",[18],3.78%
same,"viability, T/C",[19],36.9%
same,"viability, T/C",[20],15.5%
same,"viability, T/C",[21],9.46%
same,"viability, T/C",[22],5.53%
same,"viability, T/C",[23],5.14%
same,"viability, T/C",[24],3.53%
same,"viability, T/C",[25],15.7%
same,"viability, T/C",[26],10.5%
same,"viability, T/C",[27],6.92%
same,"viability, T/C",[28],4.31%
same,"viability, T/C",[29],4.06%
same,"viability, T/C",[30],1.96%
same,"viability, T/C",[31],14.8%
same,"viability, T/C",[32],12.1%
same,"viability, T/C",[33],7.38%
same,"viability, T/C",[34],5.1%
same,"viability, T/C",[35],4.66%
same,"viability, T/C",[36],3.28%
